According to patent US9790169B2, “IDO inhibitors” (BRISTOL-MYERS SQUIBB COMPANY, priority 2015, dated 2017):

Target: human IDO1 (Homo sapiens, UniProt P14902)
Experiment: Assessment of human IDO-1 inhibitory activity in HEK cells (human IDO1/HEK293 cells, kynurenine read-out with Ehrlich reagent, absorbance 490 nm)
Format: cell-based
Set-up: expressed in transfected cells
Conditions: HEK Human IDO-1 cellular assay
Procedure, shortened: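 Kynurenine output from stably IDO1-transfected HEK293 cells (10,000/well, phenol red-free RPMI, 10% FBS) after 20 h compound exposure at 37 °C. The reaction was stopped with 0.2% TCA and heated 30 min at 50 °C, then the supernatant was mixed with Ehrlich reagent and read at 490 nm. IC50 was set against DMSO and a 500 nM reference standard as 0 and 100% inhibition.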

Sequence of human IDO1 (P14902 whole entry): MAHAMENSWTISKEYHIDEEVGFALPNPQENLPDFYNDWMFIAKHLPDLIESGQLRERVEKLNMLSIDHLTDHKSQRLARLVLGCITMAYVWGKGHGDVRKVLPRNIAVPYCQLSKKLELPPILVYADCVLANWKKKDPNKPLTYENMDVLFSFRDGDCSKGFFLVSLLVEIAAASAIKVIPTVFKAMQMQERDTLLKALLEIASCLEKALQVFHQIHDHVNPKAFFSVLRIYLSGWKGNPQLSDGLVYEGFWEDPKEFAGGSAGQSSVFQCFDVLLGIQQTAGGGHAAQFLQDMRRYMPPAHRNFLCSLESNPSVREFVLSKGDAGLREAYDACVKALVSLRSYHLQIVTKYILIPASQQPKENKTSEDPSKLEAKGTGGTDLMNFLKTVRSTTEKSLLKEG

Row | Molecule | IC50 [nM]
1 | CCCCc1ccc(NC(=O)Nc2cc(C(CC)CC(=O)O)cc(F)c2N(CC(C)C)CC(C)C)cc1 (racemic) [Example 973, (+/−)-3-(3-(3-(4-butylphenyl)ureido)-4-(diisobutylamino)-5-fluorophenyl)pentanoic acid] | < 50
2 | CC[C@@H](CC(=O)O)c1ccc(N(CC)C2CCOCC2)c(NC(=O)Nc2ccc(Cl)nc2)c1 (single isomer, unassigned) [Example 495] | > 50
3 | CCC(CC(=O)O)c1cc(F)c(N(CC(C)C)CC(C)C)c(Nc2ccc(Cl)c(OCC(F)(F)F)c2)c1 (single isomer, unassigned) [Example 102, 3-(3-((4-chloro-3-(2,2,2-trifluoroethoxy)phenyl)amino)-4-(diisobutylamino)-5-fluorophenyl)pentanoic acid] | < 5
4 | CC[C@H](CC(=O)O)c1ccc(N(CC)C2CCOCC2)c(NC(=O)Nc2ccc(Cl)cc2F)c1 (single isomer, unassigned) [Example 526] | < 5
5 | COCC(CC(=O)O)c1ccc(N(CC(C)C)C2CCCCC2)c(NC(=O)Nc2ccc(C)cc2)c1 (single isomer, unassigned) [989-1] | < 5
6 | CCc1ccc(Nc2cc([C@H](CC)CC(=O)O)ccc2N2CCOC[C@@H]2C(C)C)cc1 (single isomer, unassigned) [Example 91] | < 50
7 | COCC(CC(=O)O)c1ccc(N(CC(C)C)C2CCCCC2)c(NC(=O)Cc2cc(C)on2)c1 (single isomer, unassigned) [Example 1234, 3-(4-(Cyclohexyl(isobutyl)amino)-3-(2-(5-methylisoxazol-3-yl)acetamido)phenyl)-4-methoxybutanoic acid] | > 50
8 | CCCN(c1ccc([C@@H](CC)CC(=O)O)cc1Nc1cnc(OC)nc1)C1CCOCC1 (single isomer, unassigned) [Example 540] | < 5
9 | CCC(CC(=O)O)c1cc(NC(=O)Nc2ccc(C)cc2)c(N(CC(C)C)CC(C)C)cc1F (single isomer, unassigned) [Example 1129, 3-(4-(Diisobutylamino)-2-fluoro-5-(3-(p-tolyl)ureido)phenyl)pentanoic acid] | < 5
10 | CCc1cnc(Nc2cc([C@H](CC)CC(=O)O)ccc2N(CC)C2CCCCC2)nc1 (single isomer, unassigned) [Example 286] | > 50
11 | CCOc1ncc(Nc2cc(C(C)CC(=O)O)ccc2N(CC(C)(C)O)C2CCOCC2)cn1 (single isomer, unassigned) [Example 191, 3-(3-((2-Ethoxypyrimidin-5-yl)amino)-4-((2-hydroxy-2-methylpropyl)(tetrahydro-2H-pyran-4-yl)amino)phenyl)butanoic acid] | > 50
12 | COCC(CC(=O)O)c1ccc(N(CC(C)C)CC(C)C)c(NC(=O)Nc2ccc(Cl)cc2F)c1 (racemic) [Example 994, (+/−)-3-(3-(3-(4-Chloro-2-fluorophenyl)ureido)-4-(diisobutylamino)phenyl)-4-methoxybutanoic acid] | < 5
13 | CCC(CC(=O)O)c1ccc(N(CC2CC2)C2CCOCC2)c(Nc2cnc(OC)nc2)c1 (single isomer, unassigned) [Example 703, 3-(4-((cyclopropylmethyl) (tetrahydro-2H-pyran-4-yl)amino)-3-((2-methoxypyrimidin-5-yl)amino)phenyl)pentanoic acid] | < 5
14 | COCC(CC(=O)O)c1ccc(N(CC(C)C)CC(C)C)c(NC(=O)Nc2cncnc2)c1 (single isomer, unassigned) [997-2] | < 50
15 | CCC(CC(=O)O)c1ccc(N2C[C@@H](C)O[C@@H](C)C2)c(Nc2ccc3c(c2)OC(F)(F)O3)c1 (single isomer, unassigned) [Example 765] | < 50
16 | CCC(CC(=O)O)c1cc(NC(=O)Nc2cncnc2)c(N(CC(C)C)C2CCCCC2)cc1F (single isomer, unassigned) [Example 1123, 3-(4-(cyclohexyl(isobutyl)amino)-2-fluoro-5-(3-(pyrimidin-5-yl)ureido)phenyl)pentanoic acid] | < 5
17 | CCC(CC(=O)O)c1cc(NC(=O)Nc2ccc(C)cc2)c(N(CC(C)C)CC(C)C)cc1F (racemic) [Example 1128, (±)-3-(4-(Diisobutylamino)-2-fluoro-5-(3-(p-tolyl)ureido)phenyl)pentanoic acid] | < 5
18 | CCC(CC(=O)O)c1ccc(N(CC(C)C)C2CCCCC2)c(NC(=O)C(F)(F)c2ccc(C)cc2)c1 (racemic) [Example 1075, 3-(4-(Cyclohexyl(isobutyl)amino)-3-(2,2-difluoro-2-(p-tolyl)acetamido)phenyl)pentanoic acid] | > 50
19 | CCCN(c1ccc([C@@H](COC)CC(=O)O)cc1Nc1ccc(F)cc1)C1CCOCC1 (single isomer, unassigned) [Example 562] | < 5
20 | CCN(c1ccc(C(C)CC(=O)O)cc1Nc1ccc(F)cc1)C1CCOCC1 (single isomer, unassigned) [Example 615, 3-(4-(ethyl(tetrahydro-2H-pyran-4-yl)amino)-3-((4-fluorophenyl)amino)phenyl) butanoic acid] | < 5
21 | CC(C)CN(c1ccc(C(C)CC(=O)O)cc1Nc1nc2ccccc2o1)C1CCOCC1 (single isomer, unassigned) [Example 968, 3-(3-(Benzo[d]oxazol-2-ylamino)-4-(isobutyl(tetrahydro-2H-pyran-4-yl)amino)phenyl)butanoic acid] | < 50
22 | CCC(CC(=O)O)c1cc(NC(=O)Nc2ccc(C)cc2)c(N(CC(C)C)C2CCCCC2)cc1F (single isomer, unassigned) [Example 1106, 3-(4-(Cyclohexyl(isobutyl)amino)-2-fluoro-5-(3-(p-tolyl)ureido)phenyl)pentanoic acid] | < 5
23 | CCN(c1ccc(C(CC(=O)O)c2ccccc2)cc1Nc1ccc(C#N)cc1)C1CCOCC1 (single isomer, unassigned) [Example 581, 3-(3-((4-cyanophenyl)amino)-4-(ethyl(tetrahydro-2H-pyran-4-yl)amino)phenyl)-3-phenylpropanoic acid] | < 5
24 | Cc1ccc(CC(=O)Nc2cc(C(C)CC(=O)O)ccc2N(CC(C)C)C2CCOCC2)cc1 (single isomer, unassigned) [Example 966, 3-(4-(Isobutyl(tetrahydro-2H-pyran-4-yl)amino)-3-(2-(p-tolyl)acetamido)phenyl)butanoic acid] | < 50
25 | COCC(CC(=O)O)c1ccc(N(CC(C)C)C2CCCCC2)c(NC(=O)Cc2ccc(Cl)cc2F)c1 (single isomer, unassigned) [Example 1245, 3-(3-(2-(4-Chloro-2-fluorophenyl)acetamido)-4-(cyclohexyl(isobutyl)amino)phenyl)-4-methoxybutanoic acid] | < 5
26 | 3-(4-(isobutyl(tetrahydro-2H-pyran-4-yl)amino)-3-(3-(4-phenoxyphenyl)ureido)phenyl)butanoic acid [Example 959] | < 5
27 | COCC(CC(=O)O)c1ccc(N(CC(C)C)CC(C)C)c(NC(=O)Nc2ccc(C)cc2)c1 (single isomer, unassigned) [993-1] | < 50
28 | CCC(CC(=O)O)c1cc(F)c(N(CC(C)C)CC(C)C)c(NC(=O)c2ccc(Cl)cc2)c1 (single isomer, unassigned) [Example 127, 3-(3-(4-Chlorobenzamido)-4-(diisobutylamino)-5-fluorophenyl)pentanoic acid] | > 50
